Measured values published in PubChem BioAssay (NCI).
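96-well plates; 48 h exposure; 5 concentrations. Endpoints by linear interpolation between flanking doses. Not reached: highest tested concentration assigned. GI50 = concentration required for 50% inhibition of growth. TGI denotes the concentration required for complete inhibition of growth.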

Assays:
Assay in all cases: NCI anticancer screen, dose series, 48 h
[1] = system: HT29 colon
[2] = system: MALME-3M melanoma
[3] = system: NCI-H460 lung
[4] = system: HCC-2998 colon
[5] = system: HOP-92 NSCLC
[6] = system: SK-OV-3 ovarian
[7] = system: SW-620 colon
[8] = system: IGROV1 ovarian
[9] = system: DU-145 prostate
[10] = system: TK-10 renal
[11] = system: A549 NSCLC
[12] = system: OVCAR-3 ovarian
[13] = system: RXF 393 renal
[14] = system: CAKI-1 renal
[15] = system: NCI/ADR-RES ovarian
[16] = system: HCT-116 colon
[17] = system: NCI-H226 lung
[18] = system: MDA-MB-231 breast
[19] = system: SK-MEL-5 melanoma
[20] = system: UACC-257 melanoma
[21] = system: SF-268 CNS
[22] = system: CCRF-CEM leukemia
[23] = system: MCF7 breast
[24] = system: UACC-62 melanoma
[25] = system: RPMI-8226 leukemia
[26] = system: K-562 leukemia
[27] = system: HS 578T breast
[28] = system: 786-0 renal
[29] = system: OVCAR-8 ovarian
[30] = system: SNB-19 CNS
[31] = system: SF-295 CNS
[32] = system: PC-3 prostate
[33] = system: SK-MEL-28 melanoma
[34] = system: UO-31 renal
[35] = system: KM12 colon
[36] = system: SNB-75 CNS
[37] = system: OVCAR-5 ovarian
[38] = system: M14 melanoma
[39] = system: SN12C renal
[40] = system: HL-60(TB) leukemia
[41] = system: MDA-MB-435
[42] = system: COLO 205 colon
[43] = system: SF-539 CNS
[44] = system: NCI-H23 lung
[45] = system: U251 CNS
[46] = system: A498 renal
[47] = system: SK-MEL-2 melanoma
[48] = system: NCI-H522 lung
[49] = system: HOP-62 NSCLC
[50] = system: SR leukemia
[51] = system: ACHN renal
[52] = system: BT-549 breast
[53] = system: MOLT-4 leukemia
[54] = system: OVCAR-4 ovarian
[55] = system: HCT-15 colon
[56] = system: T-47D breast

Question: With `COc1ccc(C2=Nc3c/c(=C\c4c(O)[nH]c5cc(Cl)ccc45)ccc3=N2)cc1` as the compound, how does the GI50 [1] read?
Answer: 3.06 µM

Question: And the TGI [1]?
Answer: 11.4 µM

Question: And the GI50 [2]?
Answer: 2.87 µM

Question: And the TGI [2]?
Answer: 12.7 µM

Question: What about the GI50 [3] of the same compound?
Answer: 8.01 µM

Question: What about the TGI [3] of the same compound?
Answer: 26.1 µM

Question: What about the GI50 [4] of the same compound?
Answer: 10.2 µM

Question: And the TGI [4]?
Answer: 22.1 µM

Question: What about the GI50 [5] of the same compound?
Answer: 0.553 µM

Question: And the TGI [5]?
Answer: 9.83 µM

Question: What about the GI50 [6] of the same compound?
Answer: 12.4 µM

Question: What about the TGI [6] of the same compound?
Answer: 30.5 µM

Question: What about the GI50 [7] of the same compound?
Answer: 3.01 µM

Question: What about the TGI [7] of the same compound?
Answer: 19 µM

Question: And the GI50 [8]?
Answer: 17.6 µM

Question: And the TGI [8]?
Answer: 50.5 µM

Question: And the GI50 [9]?
Answer: 6.6 µM

Question: And the TGI [9]?
Answer: 21.6 µM

Question: And the GI50 [10]?
Answer: 21 µM

Question: And the TGI [10]?
Answer: 39.3 µM

Question: What about the GI50 [11] of the same compound?
Answer: 10.1 µM

Question: What about the TGI [11] of the same compound?
Answer: 25.4 µM

Question: And the GI50 [12]?
Answer: 2.43 µM

Question: And the TGI [12]?
Answer: 8.24 µM

Question: What about the GI50 [13] of the same compound?
Answer: 3.16 µM

Question: And the TGI [13]?
Answer: 12.2 µM

Question: And the GI50 [14]?
Answer: 14.5 µM

Question: And the TGI [14]?
Answer: 43.6 µM

Question: And the GI50 [15]?
Answer: 5 µM

Question: And the TGI [15]?
Answer: 33.8 µM

Question: What about the GI50 [16] of the same compound?
Answer: 2.38 µM

Question: What about the TGI [16] of the same compound?
Answer: 8.8 µM

Question: What about the GI50 [17] of the same compound?
Answer: > 100 µM

Question: And the TGI [17]?
Answer: > 100 µM

Question: And the GI50 [18]?
Answer: 5.23 µM

Question: What about the TGI [18] of the same compound?
Answer: 19.6 µM

Question: What about the GI50 [19] of the same compound?
Answer: 10.7 µM

Question: And the TGI [19]?
Answer: 22.7 µM

Question: And the GI50 [20]?
Answer: 11 µM

Question: What about the TGI [20] of the same compound?
Answer: 25.8 µM

Question: What about the GI50 [21] of the same compound?
Answer: 12.9 µM

Question: And the TGI [21]?
Answer: 32.4 µM

Question: And the GI50 [22]?
Answer: 1.41 µM

Question: And the TGI [22]?
Answer: 9.21 µM

Question: What about the GI50 [23] of the same compound?
Answer: 2.42 µM

Question: And the TGI [23]?
Answer: 12.8 µM

Question: What about the GI50 [24] of the same compound?
Answer: 8.95 µM

Question: What about the TGI [24] of the same compound?
Answer: 22.7 µM

Question: And the GI50 [25]?
Answer: 1.73 µM

Question: And the TGI [25]?
Answer: 4.62 µM

Question: What about the GI50 [26] of the same compound?
Answer: 2.18 µM

Question: What about the TGI [26] of the same compound?
Answer: 11.5 µM

Question: And the GI50 [27]?
Answer: 10.6 µM

Question: And the TGI [27]?
Answer: 43.1 µM

Question: And the GI50 [28]?
Answer: 7.85 µM

Question: What about the TGI [28] of the same compound?
Answer: 20.6 µM

Question: And the GI50 [29]?
Answer: 7.68 µM

Question: And the TGI [29]?
Answer: 22.8 µM

Question: And the GI50 [30]?
Answer: 15.1 µM

Question: And the TGI [30]?
Answer: 41.1 µM

Question: What about the GI50 [31] of the same compound?
Answer: 12.3 µM

Question: And the TGI [31]?
Answer: 63.8 µM

Question: What about the GI50 [32] of the same compound?
Answer: 3.18 µM

Question: What about the TGI [32] of the same compound?
Answer: 28.9 µM

Question: What about the GI50 [33] of the same compound?
Answer: 1.55 µM

Question: And the TGI [33]?
Answer: 19.9 µM

Question: And the GI50 [34]?
Answer: 10.2 µM

Question: What about the TGI [34] of the same compound?
Answer: 26.7 µM

Question: What about the GI50 [35] of the same compound?
Answer: 2.49 µM

Question: What about the TGI [35] of the same compound?
Answer: 14.2 µM

Question: What about the GI50 [36] of the same compound?
Answer: 3.1 µM

Question: What about the TGI [36] of the same compound?
Answer: 14.2 µM

Question: And the GI50 [37]?
Answer: 22 µM

Question: What about the TGI [37] of the same compound?
Answer: 60 µM

Question: And the GI50 [38]?
Answer: 4.17 µM

Question: What about the TGI [38] of the same compound?
Answer: 21.6 µM

Question: And the GI50 [39]?
Answer: 13.9 µM

Question: What about the TGI [39] of the same compound?
Answer: 30 µM

Question: What about the GI50 [40] of the same compound?
Answer: 1.97 µM

Question: What about the TGI [40] of the same compound?
Answer: 4.84 µM

Question: What about the GI50 [41] of the same compound?
Answer: 0.26 µM

Question: What about the TGI [41] of the same compound?
Answer: 1.97 µM

Question: And the GI50 [42]?
Answer: 7.19 µM

Question: What about the TGI [42] of the same compound?
Answer: 21 µM

Question: And the GI50 [43]?
Answer: 11.4 µM

Question: And the TGI [43]?
Answer: 28 µM

Question: What about the GI50 [44] of the same compound?
Answer: 10.2 µM

Question: What about the TGI [44] of the same compound?
Answer: 24.2 µM

Question: What about the GI50 [45] of the same compound?
Answer: 2.08 µM

Question: And the TGI [45]?
Answer: 5.64 µM

Question: What about the GI50 [46] of the same compound?
Answer: 5.24 µM

Question: And the TGI [46]?
Answer: > 100 µM

Question: What about the GI50 [47] of the same compound?
Answer: 8.86 µM

Question: What about the TGI [47] of the same compound?
Answer: 26.6 µM

Question: What about the GI50 [48] of the same compound?
Answer: 7.07 µM

Question: And the TGI [48]?
Answer: 29.1 µM

Question: And the GI50 [49]?
Answer: 12.4 µM

Question: And the TGI [49]?
Answer: 29 µM

Question: What about the GI50 [50] of the same compound?
Answer: 1.13 µM

Question: And the TGI [50]?
Answer: 3.89 µM

Question: And the GI50 [51]?
Answer: 17.3 µM

Question: And the TGI [51]?
Answer: 41.3 µM

Question: What about the GI50 [52] of the same compound?
Answer: 3.65 µM

Question: What about the TGI [52] of the same compound?
Answer: 18.3 µM

Question: And the GI50 [53]?
Answer: 4.85 µM

Question: And the TGI [53]?
Answer: 29.9 µM

Question: What about the GI50 [54] of the same compound?
Answer: 3.22 µM

Question: What about the TGI [54] of the same compound?
Answer: 13.6 µM

Question: What about the GI50 [55] of the same compound?
Answer: 3 µM

Question: And the TGI [55]?
Answer: 11.5 µM

Question: What about the GI50 [56] of the same compound?
Answer: 10.7 µM

Question: What about the TGI [56] of the same compound?
Answer: 29.8 µM
